Assay results from patent US11684614B2, “Formulations of hydroxypyridonate actinide/lanthanide decorporation agents” (priority 2017, dated 2023).
Where “and” joins values, the source holds several entries; their conditions need not be identical. Identical values can stand only once.

Test: Repeated-treatment efficacy for removing an intravenous dose of 238Pu (excretion, tissue retention, clinical observations), female and male arms;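 on % Recovered Dose ART: abdominal tissue remainder incl GI tract reproductive organs spleen bladder and fat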
Assay type: in vivo, Swiss-Webster mice
Conditions: male animals, listed as 3,4,3-LI(1,2-HOPO); for % Recovered Dose Urine per Day, Day 3 / % Recovered Dose Urine per Day, Day 4 / % Recovered Dose Urine per Day, Day 5 / % Recovered Dose Urine per Day, Day 6 / % Recovered Dose Urine per Day, Day 7 / % Recovered Dose Urine per Day, Day 2 / % Recovered Dose Urine per Day, Day 1: Day 7 necropsy
Method: The objective of this study was to characterize the efficacy of 3,4,3-L1(1,2-HOPO) at enhancing elimination from an internal plutonium burden in female and male Swiss-Webster mice administered a soluble citrate complex of ^238Pu and treated multiple times, starting at 24 hours after the exposure. Efficacy was evaluated by comparing the tissue contents, urinary and fecal excretions of ^238Pu in treated animals versus untreated animals.
The medical countermeasure 3,4,3-L1(1,2-HOPO) was administered parenterally (ip) or orally (po) via consecutive injections or gavages (six daily or twelve twice daily) starting at 24 hours post contamination at the following four selected doses: 30 μmol/kg ip, 150 μmol/kg po, 300 μmol/kg po, and 600 μmol/kg po (equivalent to respective approximate human doses range of […], using the accepted conversion system of mouse doses into human equivalent doses—HED—based on body surface area). Oral doses also included the permeability enhancer selected during formulation development work.
• Challenge isotope: ^238Pu • Challenge dose: 25 nCi (i.e., approximately 0.8 μCi/kg) • Route of contamination: Intravenous (iv) tail-vein • Route of treatment: Intraperitoneal Injection (ip) or Oral (po) • Frequency of treatment: Multiple (once- or twice-daily for 6 days) doses, starting 24 hr postcontamination • Treatment dose calculation: Dose calculations (mg/kg or μmol/kg) for the decorporation agent were based on the individual body weight measured after contamination. • Study Duration: 11 days, in-life
c. […] Test article and control dose formulations were prepared within 1 day of dose administration, by weighing out the appropriate amount of test article, dispersing in vehicle. For ip solutions, the test article was used alone, while for oral suspensions, a mixture of test article and excipient (90:10, w:w) was used. The pH was adjusted to 7.0-7.4 for ip administration and 5.0-5.5 for oral administration with sterile NaOH. Dose formulations were prepared at room temperature and filter-sterilized. • Storage: 2-8° C.; refrigerated; protected from light. • Characterization: The concentration of each test article formulation was verified by high-performance liquid chromatography-mass spectrometry. • Test Article Handling: Test, reference, and control article formulations were handled with the use of eye protection, gloves, and a protective laboratory coat. • Correct Dose Assurance: The test article was weighed with calibrated balances. The administration of each dose formulation was properly documented, and the amount administered to each animal recorded.
e. Experimental Procedures (In-Life Evaluations and Euthanasia) • Contamination: Single administration by intravenous (iv) tail-vein injection (0.2 mL injection volume) under isoflurane anesthesia. Three standard 0.2 mL injections were performed into polyethylene bottles and pre-loaded with aliquots of concentrated nitric acid on each injection day. Six female and six male mice were culled for necropsy 1 hr post-contamination and were used as standards. A11 standards were processed and counted together with the final samples to allow verification of the contamination dose. • Dose Administration: Single administration by intraperitoneal injection (ip) or oral gavage (po) under isoflurane anesthesia. • Mortality/Morbidity: Assessed at least once daily. • Clinical Observations: Recorded once daily (4 hr post-dose on day of treatment), or more often as clinical signs warranted. […]

SMILES: O=C(NCCCN(CCCCN(CCCNC(=O)c1cccc(=O)n1O)C(=O)c1cccc(=O)n1O)C(=O)c1cccc(=O)n1O)c1cccc(=O)n1O [3,4,3-L1(1,2-HOPO)]
- % Recovered Dose Urine per Day, Day 3 (animal group B): 0.61% and 1.15% and 1.12% and 1.18%
- % Recovered Dose Urine per Day, Day 4 (animal group B): 1.30% and 0.41% and 0.54% and 0.89%
- % Recovered Dose Urine per Day, Day 5 (animal group B): 0.61% and 0.58% and 0.10% and 0.65%
- % Recovered Dose Urine per Day, Day 6 (animal group B): 0.18% and 0.64% and 0.10%
- % Recovered Dose Urine per Day, Day 7 (animal group B): 0.17% and 0.37% and 0.28% and 0.50%
- % Recovered Dose Urine per Day, Day 2 (animal group C): 1.72% and 4.28% and 3.19% and 0.38%
- % Recovered Dose Urine per Day, Day 3 (animal group C): 0.95% and 1.32% and 0.98% and 0.50%
- % Recovered Dose Urine per Day, Day 4 (animal group C): 0.59% and 1.17% and 0.68% and 0.55%
- % Recovered Dose Urine per Day, Day 5 (animal group C): 0.35% and 0.65% and 0.33% and 0.19%
- % Recovered Dose Urine per Day, Day 6 (animal group C): 0.19% and 0.70% and 0.52% and 0.07%
- % Recovered Dose Urine per Day, Day 7 (animal group C): 0.10% and 0.94% and 0.45% and 0.11%
- % Recovered Dose Urine per Day, Day 1 (animal group E): 21.72% and 14.01% and 18.66% and 17.47%
- % Recovered Dose Urine per Day, Day 2 (animal group E): 3.64% and 2.67% and 3.46% and 2.04%
- % Recovered Dose Urine per Day, Day 3 (animal group E): 1.49% and 0.90% and 1.61% and 1.12%
- % Recovered Dose Urine per Day, Day 4 (animal group E): 0.67% and 0.69% and 0.59% and 0.53%
- % Recovered Dose Urine per Day, Day 5 (animal group E): 0.39% and 0.62% and 0.41%
- % Recovered Dose Urine per Day, Day 6 (animal group E): 0.49% and 0.53% and 0.46% and 0.31%
- % Recovered Dose Urine per Day, Day 7 (animal group E): 0.21% and 0.41% and 0.23% and 0.27%
- % Recovered Dose Urine per Day, Day 1 (animal group F): 19.31% and 19.65% and 13.22% and 25.18%
- % Recovered Dose Urine per Day, Day 2 (animal group F): 3.62% and 1.94% and 2.38% and 2.07%
- % Recovered Dose Urine per Day, Day 3 (animal group F): 1.51% and 1.15% and 1.06%
- % Recovered Dose Urine per Day, Day 4 (animal group F): 0.98% and 0.55% and 0.74% and 0.83%
- % Recovered Dose Urine per Day, Day 5 (animal group F): 0.45% and 0.42% and 0.47% and 0.41%
- % Recovered Dose Urine per Day, Day 6 (animal group F): 0.45% and 0.47% and 0.36% and 0.29%
- % Recovered Dose Urine per Day, Day 7 (animal group F): 0.55% and 0.40% and 0.72% and 0.26%
- % Recovered Dose ART (Day-7 necropsy, animal group B): 2.16% and 1.57% and 1.65% and 1.32%
- % Recovered Dose Combined Body (Day-7 necropsy, animal group B): 52.05% and 37.93% and 50.13% and 45.55%
- % Recovered Dose Combined Excreta (Day-7 necropsy, animal group B): 47.95% and 62.07% and 49.87% and 54.45%
- % Recovered Dose Kidney (Day-7 necropsy, animal group B): 0.29% and 0.25% and 0.26% and 0.45%
- % Recovered Dose SKEL (Day-7 necropsy, animal group B): 15.55% and 20.00% and 23.24% and 20.71%
- % Recovered Dose SOFT (Day-7 necropsy, animal group B): 3.27% and 3.41% and 2.67% and 3.29%
- % Recovered Dose Total Feces (Day-7 necropsy, animal group B): 22.40% and 40.49% and 26.02% and 32.13%
- % Recovered Dose Total Urine (Day-7 necropsy, animal group B): 25.54% and 21.58% and 23.85% and 22.32%
- % Recovered Dose ART (Day-7 necropsy, animal group C): 1.42% and 1.55% and 1.84% and 1.39%
- % Recovered Dose Combined Body (Day-7 necropsy, animal group C): 44.39% and 38.12% and 45.21% and 38.36%
- % Recovered Dose Combined Excreta (Day-7 necropsy, animal group C): 55.61% and 61.88% and 54.79% and 61.64%
